In US12150939B2, “Therapeutic drug for ectopic ossification having mechanism to inhibit PAR1” (NATIONAL UNIVERSITY CORPORATION KUMAMOTO UNIVERSITY, priority 2015, dated 2024):

Columns and labels:
FOP-derived fibroblasts [1] = assay: Differentiation of FOP-derived fibroblasts to osteoblasts in the absence of serum when using each inhibitor (ALP immunostaining and ALP activity); format: cell-based, human; settings: BMP6 and TFLLR stimulation
NOG mice = assay: Ectopic ossification in teratomas from FOP patient iPS cells implanted into testicle of NOG mice, PAR1 inhibitor (CT); format: in vivo; settings: 0.2 mg/kg/day intraperitoneally once daily from 9 weeks after implantation
[2] = test system: normal subject-derived fibroblasts; assay: PAR1 mRNA expression by BMP6 stimulation in the presence of serum (qPCR), normal subject-derived fibroblasts; format: cell-based, human; settings: BMP6 50 ng/mL, over time
Experimental: (§1) • (1) Fibroblasts were created from skin biopsy explants from FOP patients and normal subjects under informed consent by a protocol approved by Ethics committee. • (2) Skin samples from patients and from normal subjects were finely cut and cultured in DMEM medium supplemented with 10% fetal bovine serum (FBS). • (3) After emergence of fibroblasts was observed, the fibroblasts were grown to introduce a reprogramming gene. The grown fibroblasts were then put in a solution for freezing containing 10% DMSO+90% FBS and cryopreserved. <2. […] Intensity of bands was evaluated by Image J software (NIH, USA). • (4) In immunoprecipitation, 293T cells in which Smads were overexpressed, and KDM6B or LSD1 were lysed in RIPA buffer (50 mM Tris-HCl, pH 7.4, 1 mM EDTA, 150 mM NaCl, 1% NP-40, protease/phosphatase inhibitor cocktail). […]

FOP-derived fibroblasts [3] = assay: PAR1 mRNA expression by BMP6 stimulation in the presence of serum (qPCR), FOP-derived fibroblasts; format: cell-based, human; settings: BMP6 50 ng/mL, over time, compared to normal subject-derived fibroblasts
Experimental: as §1

FOP-derived fibroblasts [4] = assay: Differentiation of FOP-derived fibroblasts to osteoblasts by BMP6 / TFLLR stimulation in the absence of serum (ALP immunostaining and ALP activity); format: cell-based, human; settings: single stimulus
Experimental: as §1

For CC(C)c1ccc(Cn2ccc3c4c(N)nc(NC5CC5)nc4ccc32)cc1 [SCH79797, N3-cyclopropyl-7-[[4-(1-methylethyl)phenyl]methyl]-7H-pyrrolo[3,2-f]quinazoline-1,3-diamine], which ALP activity (FOP-derived fibroblasts [1]; 200 nM) is on record?
The ALP activity was “largely decreased”.

What about the “ALP expression (immunostaining)” value (FOP-derived fibroblasts [1]; 200 nM) of the same molecule?
The value was “largely decreased”.

With CCOC(=O)N[C@@H]1CC[C@@H]2[C@@H](C1)C[C@H]1C(=O)O[C@H](C)[C@H]1[C@H]2/C=C/c1ccc(-c2cccc(F)c2)cn1 [Vorapaxar, ethyl [(1R,3aR,4aR,6R,8aR,9S,9aS)-9-{(1E)-2-[5-(3-fluorophenyl)pyridin-2-yl]ethen-1-yl}-1-methyl-3-oxododecahydronaphtho[2,3-c]furan-6-yl]carbamate] as the molecule, how does the “bone volume in the teratomas relative to vehicle” value (NOG mice) read?
The value was “about one third”.

And the “teratoma volume calculated from CT images versus vehicle” value (NOG mice)?
Its value is “a significant difference in the teratoma volume was not observed”.

What about the “bones found in the teratomas (CT images) versus vehicle” value (NOG mice; after 2 weeks of administration) of the same molecule?
The value was “notably less”.

And the ALP activity (FOP-derived fibroblasts [1]; 1 μM)?
Its ALP activity is “largely decreased”.

And the “ALP expression (immunostaining)” value (FOP-derived fibroblasts [1]; 1 μM)?
The value was “largely decreased”.

B1: BMP6: bone morphogenetic protein used as osteogenic stimulus (protein, UniProt P22004 375-513, looked up)
Bone morphogenetic protein 6: SASSRRRQQSRNRSTQSQDVARVSSASDYNSSELKTACRKHELYVSFQDLGWQDWIIAPKGYAANYCDGECSFPLNAHMNATNHAIVQTLVHLMNPEYVPKPCCAPTKLNAISVLYFDDNSNVILKKYRNMVVRACGCH
B1 was tested. Which “mRNA expression level of PAR1” value [2] did it give?
The value was “significantly increased”.

What about the “mRNA expression level of PAR1” value (FOP-derived fibroblasts [3]) of the same molecule?
The value was “remarkable increase”.

What about the “ALP activity compared to control” value (FOP-derived fibroblasts [4]) of the same molecule?
The value was “significantly increased”.

What about the “ALP expression (immunostaining)” value (FOP-derived fibroblasts [4]) of the same molecule?
The value was “observed”.
